From patent US20030119719A1, “Use of endothelin conjugates in therapy, new endothelin conjugates, agents that contain the latter, and process for their production” (priority 1996, published 2003)

How the values were obtained:
common carotid artery = test: Local application via administration catheter in the denuded common carotid artery, dynamic scintigraphy and autoradiography; details: for course of the locally administered activity at the administration site after blood flow is restored: examination period of 1 hour, dynamic scintigrams, right common carotid artery
Text: b) Local Application of the Tc-99m Complex of NH2-Asp-Gly-Gly-Cys-Gly-Cys-Phe-(D-Trp)-Leu-Asp-Ile-Ile-Trp-OH as well as Tc-99m-pertechnetate in the Common Carotid Artery of White New Zealand Rabbits
In anesthetized white New Zealand rabbits (3.5 kg), the right common carotid artery was opened up. A 2 F balloon catheter (from the Baxter Company) was inserted cranially through a cut, and a vascular area approximately 5 cm long was denuded twice with 0.9% saline after the catheter was inflated. Then, an administration catheter (coronary perfusion/infusion catheter, dispatch 3.0, Baxter Company) was fed to the above-denuded area. […] Then, the catheter was removed, and the blood flow after closure of the common carotid artery dextra was restored using a suture. Dynamic scintigrams were prepared over a period of 1 hour with the aid of a commercial gamma camera. Then, the animals were sacrificed, both carotids were removed, and an autoradiography was prepared.

arteriosclerotic plaque = test: In vivo and in vitro concentration in WHHL rabbits (gamma camera imaging, autoradiography of the aorta); details: 2 mCi (1 ml) via an ear vein
Method: In Vivo and In Vitro Concentration of the ^99mTc-Complex of […] in WHHL Rabbits 2 mCi (1 ml) of the […]Tc-complex that is produced according to 5a) is administered to an anesthetized WHHL rabbit (Rompun/Ketavet 1:2) via an ear vein. WHHL rabbits have a high LDL level in the blood because of a deficient or defective LDL receptor and therefore create spontaneously arteriosclerotic vascular alterations. During the test period of 5 hours after the administration, static images of various exposure times and of various positions were produced with a gamma camera ([…]). 5 hours after the administration, the rabbit was sacrificed, and both an autoradiography of the aorta and a Sudan III coloring were carried out.

[O]=[99Tc](=[O])(=[O])[O-] [Tc-99m pertechnetate]
site of accumulation after being flushed from the vessel wall (common carotid artery; anterior summation scintigram 0-1 hour after local administration (FIG. 1)): accumulates in the salivary glands as well as the thyroid | course of the locally administered activity at the administration site after blood flow is restored (common carotid artery): flushed from the vessel directly after the blood flow was regenerated | course of the locally administered activity at the administration site after blood flow is restored (common carotid artery; listed as Tc-99m-pertechnetate): flushed from the vessel wall immediately after the blood flow is restored

^99mTc Complex of Asp-Gly-Gly-Cys-Gly-Cys-Phe-(D-Trp)-Leu-Asp-Ile-Ile-Trp
time at which arteriosclerotic plaque in the area of the aortic arch could be visualized in vivo (arteriosclerotic plaque): 10 minutes p.i.
